Measured values taken from PMC2375871, “Regulation of 5'-adenosine monophosphate deaminase in the freeze tolerant wood frog, Rana sylvatica” (BMC Biochemistry, 2008).

How the values were obtained:
Assay type in all cases: biochemical, Lithobates sylvaticus
[1] = tested on: T1, Free AMPD (wood frog skeletal muscle, control frogs); assay: AMP deaminase activity, […] nm absorbance, Hill fit; details: after Sephadex G-50 desalting, Hill coefficient 2.37, pH 7.2, 25°C, read-out: After spun columns
T1 construct: gene AMPD1; native, soluble (free) form in skeletal muscle extract of 5°C-acclimated control frogs, Sephadex G-50 desalted, not purified

[2] = tested on: T2, Bound AMPD (wood frog skeletal muscle, frozen frogs); assay: AMP deaminase activity, glutamate dehydrogenase-coupled, NADH […] nm, Hill fit; details: Hill coefficient 1.12, pH 7.2, 25°C, no glucose, bound enzyme, read-out: S0.5 AMP
T2 construct: gene AMPD1; high phosphate form (sites not known); not purified

[3] = tested on: T3, Bound AMPD (wood frog skeletal muscle, control frogs); assay: as above; details: Hill coefficient 1.03, pH 7.2, 25°C, no glucose, bound enzyme, read-out: S0.5 AMP
T3 construct: gene AMPD1; low phosphate form; not purified

[4] = molecular target: T1, Free AMPD (wood frog skeletal muscle, control frogs); assay: AMP deaminase activity, […] nm absorbance; details: 0.5 mM AMP, pH 7.2, 25°C, allosteric
[5] = molecular target: T2, Bound AMPD (wood frog skeletal muscle, frozen frogs); assay: AMP deaminase activity, glutamate dehydrogenase-coupled, NADH […] nm; details: activation constant (half-maximal activation, 3.42-fold), as Mg·ADP, 0.5 mM AMP, pH 7.2, 25°C, bound enzyme, allosteric
[6] = molecular target: T3, Bound AMPD (wood frog skeletal muscle, control frogs); assay: as above; details: activation constant (half-maximal activation, 1.25-fold), as Mg·ADP, 0.5 mM AMP, pH 7.2, 25°C, bound enzyme, allosteric
[7] = molecular target: T2, Bound AMPD (wood frog skeletal muscle, frozen frogs); assay: as above; details: as Mg·GTP, 0.5 mM AMP, pH 7.2, 25°C, bound enzyme, allosteric
[8] = molecular target: T1, Free AMPD (wood frog skeletal muscle, control frogs); assay: AMP deaminase activity, […] nm absorbance; details: as Mg·GTP, 0.5 mM AMP, pH 7.2, 25°C, allosteric
[9] = molecular target: T3, Bound AMPD (wood frog skeletal muscle, control frogs); assay: AMP deaminase activity, glutamate dehydrogenase-coupled, NADH […] nm; details: as Mg·GTP, 0.5 mM AMP, pH 7.2, 25°C, bound enzyme, allosteric

Nc1ncnc2c1ncn2[C@@H]1O[C@H](COP(=O)(O)O)[C@@H](O)[C@H]1O [AMP]
Km [1]: 1350 ± 80 µM
Km [2]: 1500 ± 190 µM
Km [3]: 460 ± 30 µM

Nc1ncnc2c1ncn2[C@@H]1O[C@H](COP(=O)(O)OP(=O)(O)O)[C@@H](O)[C@H]1O [Mg·ADP]
EC50 ([4]; activation constant (half-maximal activation, 2.17-fold), as Mg·ADP): 1.12 ± 0.15 mM
EC50 [5]: 1.14 ± 0.1 mM
EC50 [6]: 3.75 ± 0.37 mM

Nc1ncnc2c1ncn2[C@@H]1O[C@H](COP(=O)(O)OP(=O)(O)OP(=O)(O)O)[C@@H](O)[C@H]1O [Mg·ATP]
EC50 ([4]; activation constant (half-maximal activation, 1.53-fold), as Mg·ATP): 1.9 ± 0.03 mM

Nc1nc2c(ncn2[C@@H]2O[C@H](COP(=O)(O)OP(=O)(O)OP(=O)(O)O)[C@@H](O)[C@H]2O)c(=O)[nH]1 [Mg·GTP]
IC50 [7]: 0.1 ± 0.01 mM
IC50 [8]: 0.15 ± 0.02 mM
IC50 [9]: 0.08 ± 0.01 mM
